The target of experiment [1] is T1, glutathione S-transferase (GST)-fused full-length human Syk protein (Homo sapiens, UniProt P43405).
T1 construct: (GST)-fused full-length human Syk protein; GST (glutathione S-transferase); purchased Carna Biosciences
Nature of the experiment: Syk enzyme assay. It counts as biochemical. Conditions: Syk enzyme assay, Test Example 1; read-out: IC50 of Syk-inhibitory activity. Put shortly:
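GST-tagged full-length human Syk (baculovirus) preincubated with compound 15 min at room temperature (pH 7.0, 10 mM MgCl2), then reacted 40 min with 0.4 μM biotinylated peptide substrate and 27 μM ATP (final). Phosphorylation read by HTRF (615/665 nm) after EDTA stop; IC50 reported.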

Another experiment concerns THP-1 cells. Nature of the experiment: TNFα generation assay. It counts as cell-based, human. Conditions: Homo sapiens, THP-1, THP-1 cells; Table 22; read-out: IC50 in TNFα generation assay. In a few lines:
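THP-1 cells differentiated to macrophage-like cells with 10 ng/ml IFN-γ for 2 days, preincubated with compound 30 min at room temperature, then cultured 7 h on plates coated with human IgG (10 μg/ml). Secreted TNFα measured by ELISA or AlphaLISA.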

pIC50: −log10 of the molar value.

Consider `NC(=O)c1cc(F)c(N[C@@H]2CCCC[C@@H]2N)nc1Nc1cnc(-n2cccn2)c(F)c1` [Example 006-447, 6-(((1R,2S)-2-aminocyclohexyl)amino)-5-fluoro-2-((5-fluoro-6-(1H-pyrazol-1-yl)pyridin-3-yl)amino)nicotinamide], for which the pIC50 in experiment [1] is 7.30 to 8.00; with THP-1 cells, 6.70 to 6.89.
For `NC(=O)c1cc(F)c(N[C@@H]2CCCC[C@@H]2N)nc1Nc1cnc(-n2cccn2)c(-n2nccn2)c1` [Example 006-449, 2-((6-(1H-pyrazol-1-yl)-5-(2H-1,2,3-triazol-2-yl)pyridin-3-yl)amino)-6-(((1R,2S)-2-aminocyclohexyl)amino)-5-fluoronicotinamide], in that order: 7.00 to 7.30 and 6.70 to 6.89.
Take `CCc1nn(C)c2ccc(Nc3nc(N[C@@H]4CCCC[C@@H]4N)c(F)cc3C(N)=O)cc12` [Example 006-451, 6-(((1R,2S)-2-aminocyclohexyl)amino)-2-((3-ethyl-1-methyl-1H-indazol-5-yl)amino)-5-fluoronicotinamide]: the results for the pIC50 (in experiment [1]; with THP-1 cells) were above 8.00 and above 7.19, respectively.
For `CCc1nn(CC)c2ccc(Nc3nc(N[C@@H]4CCCC[C@@H]4N)c(F)cc3C(N)=O)cc12` [Example 006-452, 6-(((1R,2S)-2-aminocyclohexyl)amino)-2-((1,3-diethyl-1H-indazol-5-yl)amino)-5-fluoronicotinamide], in that order: above 8.00 and above 7.19.
For `CCc1nn(CCOC)c2ccc(Nc3nc(N[C@@H]4CCCC[C@@H]4N)c(F)cc3C(N)=O)cc12` [Example 006-453, 6-(((1R,2S)-2-aminocyclohexyl)amino)-2-((3-ethyl-1-(2-methoxyethyl)-1H-indazol-5-yl)amino)-5-fluoronicotinamide], in that order: above 8.00 and above 7.19.
In the case of `CCc1nn(CCF)c2ccc(Nc3nc(N[C@@H]4CCCC[C@@H]4N)c(F)cc3C(N)=O)cc12` [Example 006-454, 6-(((1R,2S)-2-aminocyclohexyl)amino)-2-((3-ethyl-1-(2-fluoroethyl)-1H-indazol-5-yl)amino)-5-fluoronicotinamide], the pIC50 in experiment [1] was above 8.00; in the experiment on THP-1 cells it was 6.89 to 7.19.
As for `CCc1nn(CC(F)F)c2ccc(Nc3nc(N[C@@H]4CCCC[C@@H]4N)c(F)cc3C(N)=O)cc12` [Example 006-455, 6-(((1R,2S)-2-aminocyclohexyl)amino)-2-((1-(2,2-difluoroethyl)-3-ethyl-1H-indazol-5-yl)amino)-5-fluoronicotinamide], the pIC50 in experiment [1] is above 8.00; in the experiment on THP-1 cells it was 6.89 to 7.19.
For the compound `CCCc1nn(C)c2ccc(Nc3nc(N[C@@H]4CCCC[C@@H]4N)c(F)cc3C(N)=O)cc12` [Example 006-456, 6-(((1R,2S)-2-aminocyclohexyl)amino)-5-fluoro-2-((1-methyl-3-propyl-1H-indazol-5-yl)amino)nicotinamide], the pIC50 is above 8.00 in experiment [1] and 6.70 to 6.89 in the experiment with THP-1 cells.
For `CCCc1nn(CC)c2ccc(Nc3nc(N[C@@H]4CCCC[C@@H]4N)c(F)cc3C(N)=O)cc12` [Example 006-457, 6-(((1R,2S)-2-aminocyclohexyl)amino)-2-((1-ethyl-3-propyl-1H-indazol-5-yl)amino)-5-fluoronicotinamide], in that order: above 8.00 and 6.70 to 6.89.
Taken in the same sequence, the figures for `CCCc1nn(CCOC)c2ccc(Nc3nc(N[C@@H]4CCCC[C@@H]4N)c(F)cc3C(N)=O)cc12` [Example 006-458, 6-(((1R,2S)-2-aminocyclohexyl)amino)-5-fluoro-2-((1-(2-methoxyethyl)-3-propyl-1H-indazol-5-yl)amino)nicotinamide] were above 8.00 and 6.70 to 6.89.
`CCCc1nn(CCF)c2ccc(Nc3nc(N[C@@H]4CCCC[C@@H]4N)c(F)cc3C(N)=O)cc12` [Example 006-459, 6-(((1R,2S)-2-aminocyclohexyl)amino)-5-fluoro-2-((1-(2-fluoroethyl)-3-propyl-1H-indazol-5-yl)amino)nicotinamide]: the values for the pIC50 (in experiment [1]; with THP-1 cells) were above 8.00 and 6.89 to 7.19, respectively.
Taken in the same sequence, the figures for `CCCc1nn(CC(F)F)c2ccc(Nc3nc(N[C@@H]4CCCC[C@@H]4N)c(F)cc3C(N)=O)cc12` [Example 006-460, 6-(((1R,2S)-2-aminocyclohexyl)amino)-2-((1-(2,2-difluoroethyl)-3-propyl-1H-indazol-5-yl)amino)-5-fluoronicotinamide] were above 8.00 and 6.89 to 7.19.
On to `CC(C)c1nn(C)c2ccc(Nc3nc(N[C@@H]4CCCC[C@@H]4N)c(F)cc3C(N)=O)cc12` [Example 006-461, 6-(((1R,2S)-2-aminocyclohexyl)amino)-5-fluoro-2-((3-isopropyl-1-methyl-1H-indazol-5-yl)amino)nicotinamide], for which the pIC50 in experiment [1] was above 8.00; in the experiment with THP-1 cells, 6.89 to 7.19.
Turning to `CCCc1nn(C)c2ccc(Nc3nc(N[C@H](CC4CC4)[C@H](C)N)c(F)cc3C(N)=O)cc12` [Example 006-464, 6-(((2R,3S)-3-amino-1-cyclopropylbutan-2-yl)amino)-5-fluoro-2-((1-methyl-3-propyl-1H-indazol-5-yl)amino)nicotinamide], the pIC50 in experiment [1] was above 8.00; in the experiment on THP-1 cells it was 6.89 to 7.19.
For `CCn1nc(C(C)C)c2cc(Nc3nc(N[C@H](CC4CC4)[C@H](C)N)c(F)cc3C(N)=O)ccc21` [Example 006-465, 6-(((2R,3S)-3-amino-1-cyclopropylbutan-2-yl)amino)-2-((1-ethyl-3-isopropyl-1H-indazol-5-yl)amino)-5-fluoronicotinamide], in that order: above 8.00 and 6.70 to 6.89.
For `NC(=O)c1cc(F)c(N[C@@H]2CCCC[C@@H]2N)nc1Nc1cnc(N2CCOCC2)c(Cl)c1` [Example 006-466, 6-(((1R,2S)-2-aminocyclohexyl)amino)-2-((5-chloro-6-morpholinopyridin-3-yl)amino)-5-fluoronicotinamide], in that order: 7.30 to 8.00 and 6.89 to 7.19.
Taken in the same sequence, the figures for `CCn1ncc2cc(Nc3nc(N[C@H](COC)[C@H](C)N)c(F)cc3C(N)=O)ccc21` [Example 006-469, 6-(((2S,3S)-3-amino-1-methoxybutan-2-yl)amino)-2-((1-ethyl-1H-indazol-5-yl)amino)-5-fluoronicotinamide] were above 8.00 and above 7.19.
Take `COC[C@@H](Nc1nc(Nc2ccnc(OC)c2)c(C(N)=O)cc1F)[C@H](C)N` [Example 006-470, 6-(((2S,3S)-3-amino-1-methoxybutan-2-yl)amino)-5-fluoro-2-((2-methoxypyridin-4-yl)amino)nicotinamide]: the pIC50 in experiment [1] is 7.30 to 8.00; with THP-1 cells, 6.89 to 7.19.
As to `CCn1ncc2cc(Nc3nc(N[C@H](C4CC4)[C@H](C)N)c(F)cc3C(N)=O)ccc21` [Example 006-471, 6-(((1R,2S)-2-amino-1-cyclopropylpropyl)amino)-2-((1-ethyl-1H-indazol-5-yl)amino)-5-fluoronicotinamide], the pIC50 in experiment [1] is above 8.00; in the experiment on THP-1 cells it was above 7.19.
`NC(=O)c1cc(F)c(N[C@@H]2CCCC[C@@H]2N)nc1Nc1ccc2c(cnn2C2CC2)c1` [Example 006-472, 6-(((1R,2S)-2-aminocyclohexyl)amino)-2-((1-cyclopropyl-1H-indazol-5-yl)amino)-5-fluoronicotinamide]: the values for the pIC50 (in experiment [1]; in the experiment on THP-1 cells) were above 8.00 and 6.89 to 7.19, respectively.
Turning to `NC(=O)c1cc(F)c(N[C@@H]2CCCC[C@@H]2N)nc1Nc1ccc2cnn(C3CC3)c2c1` [Example 006-473, 6-(((1R,2S)-2-aminocyclohexyl)amino)-2-((1-cyclopropyl-1H-indazol-6-yl)amino)-5-fluoronicotinamide], the pIC50 in experiment [1] is above 8.00; with THP-1 cells it was above 7.19.
For `NC(=O)c1cc(F)c(N[C@@H]2CCCC[C@@H]2N)nc1Nc1cccc2c1cnn2C1CC1` [Example 006-474, 6-(((1R,2S)-2-aminocyclohexyl)amino)-2-((1-cyclopropyl-1H-indazol-4-yl)amino)-5-fluoronicotinamide], in that order: above 8.00 and 6.89 to 7.19.
For the compound `NC(=O)c1cc(F)c(N[C@@H]2CCCC[C@@H]2N)nc1Nc1ccc2c(c1)c(F)nn2C1CC1` [Example 006-475, 6-(((1R,2S)-2-aminocyclohexyl)amino)-2-((1-cyclopropyl-3-fluoro-1H-indazol-5-yl)amino)-5-fluoronicotinamide], the pIC50 is above 8.00 in experiment [1] and 6.70 to 6.89 in the experiment with THP-1 cells.
For `Cc1nn(C2CC2)c2ccc(Nc3nc(N[C@@H]4CCCC[C@@H]4N)c(F)cc3C(N)=O)cc12` [Example 006-477, 6-(((1R,2S)-2-aminocyclohexyl)amino)-2-((1-cyclopropyl-3-methyl-1H-indazol-5-yl)amino)-5-fluoronicotinamide], in that order: above 8.00 and 6.70 to 6.89.
Taken in the same sequence, the figures for `CCc1nn(C2CC2)c2ccc(Nc3nc(N[C@@H]4CCCC[C@@H]4N)c(F)cc3C(N)=O)cc12` [Example 006-478, 6-(((1R,2S)-2-aminocyclohexyl)amino)-2-((1-cyclopropyl-3-ethyl-1H-indazol-5-yl)amino)-5-fluoronicotinamide] were above 8.00 and 6.89 to 7.19.
Regarding `C[C@H](N)[C@@H](CC1CC1)Nc1nc(Nc2ccc3cnn(C4CC4)c3c2)c(C(N)=O)cc1F` [Example 006-480, 6-(((2R,3S)-3-amino-1-cyclopropylbutan-2-yl)amino)-2-((1-cyclopropyl-1H-indazol-6-yl)amino)-5-fluoronicotinamide], the pIC50 in experiment [1] is above 8.00; with THP-1 cells it was 6.70 to 6.89.

The values are drawn from US8895585B2, “Nicotinamide derivative or salt thereof” (FUJIFILM Corporation, priority 2010, dated 2014).
